Laboratory results as given in PubChem BioAssay (NCI).
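How tested: cells in 96-well plates exposed to compound for 48 hours at five concentrations. The concentration for full growth arrest is given as TGI.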

Key:
Assay in all cases: growth of human tumour cells (NCI), 48 h
[1] = tested on: SF-295 CNS
[2] = tested on: OVCAR-4 ovarian
[3] = tested on: SF-268 CNS
[4] = tested on: HCT-15 colon
[5] = tested on: M19-MEL melanoma
[6] = tested on: SK-MEL-5 melanoma
[7] = tested on: HCT-116 colon
[8] = tested on: SF-539 CNS
[9] = tested on: OVCAR-8 ovarian
[10] = tested on: A549 NSCLC
[11] = tested on: UACC-257 melanoma
[12] = tested on: KM12 colon
[13] = tested on: HT29 colon
[14] = tested on: SW-620 colon
[15] = tested on: K-562 leukemia
[16] = tested on: RXF 393 renal
[17] = tested on: LOX IMVI melanoma
[18] = tested on: DMS 273 small cell lung
[19] = tested on: SNB-75 CNS
[20] = tested on: OVCAR-3 ovarian
[21] = tested on: MALME-3M melanoma
[22] = tested on: IGROV1 ovarian
[23] = tested on: LXFL 529 NSCLC
[24] = tested on: SNB-78 CNS
[25] = tested on: NCI-H226 lung
[26] = tested on: NCI-H460 lung
[27] = tested on: HOP-18 NSCLC
[28] = tested on: M14 melanoma
[29] = tested on: MOLT-4 leukemia
[30] = tested on: UACC-62 melanoma
[31] = tested on: NCI-H23 lung
[32] = tested on: A498 renal
[33] = tested on: SK-MEL-28 melanoma
[34] = tested on: TK-10 renal
[35] = tested on: ACHN renal
[36] = tested on: SK-MEL-2 melanoma
[37] = tested on: DMS 114 small cell lung
[38] = tested on: CCRF-CEM leukemia
[39] = tested on: HL-60(TB) leukemia
[40] = tested on: SN12C renal
[41] = tested on: BT-549 breast
[42] = tested on: CAKI-1 renal
[43] = tested on: MDA-N
[44] = tested on: HCC-2998 colon
[45] = tested on: MDA-MB-231 breast
[46] = tested on: HOP-62 NSCLC
[47] = tested on: EKVX NSCLC
[48] = tested on: OVCAR-5 ovarian
[49] = tested on: MCF7 breast
[50] = tested on: NCI/ADR-RES ovarian
[51] = tested on: RPMI-8226 leukemia
[52] = tested on: PC-3 prostate
[53] = tested on: HS 578T breast
[54] = tested on: DU-145 prostate
[55] = tested on: SK-OV-3 ovarian
[56] = tested on: HOP-92 NSCLC
[57] = tested on: SR leukemia
[58] = tested on: NCI-H522 lung
[59] = tested on: COLO 205 colon
[60] = tested on: MDA-MB-435
[61] = tested on: UO-31 renal
[62] = tested on: 786-0 renal
[63] = tested on: U251 CNS
[64] = tested on: T-47D breast

Measured: TGI

CC1(C)OC(COP2OCCO2)[C@H](COP2OCCO2)O1 (stereo not given in full)
not listed: [41] | [42] | [43] | [44] | [45] | [46] | [47] | [48] | [49] | [50] | [51] | [52] | [53] | [54] | [55] | [56] | [57] | [58] | [59] | [60] | [61] | [62] | [63] | [64]
> 100 µM: all other assays above

COc1cc(OC)cc(Oc2nc3ccc(C(F)(F)F)cc3nc2-c2ccccc2)c1
not listed: [5] | [18] | [23] | [24] | [27] | [28] | [36] | [37] | [40]
> 100 µM: all other assays above
